Values quoted from earlier work as cited in US11833161B2, “Compositions and methods for treatment of skin infections” (priority 2015, dated 2023).

Columns and labels:
warts (verrucae) = settings: one case, 2 large mosaic verruca; previous treatments by 2 podiatrists and a dermatologist over 14 months
cutaneous warts = settings: meta-analysis of trials, topical treatment of cutaneous warts; range in brackets

Compound | outcome of previous treatments in the difficult case (warts (verrucae)) | cure rate (cutaneous warts)
CN/C(=N/CCSCc1nc[nH]c1C)NC#N [cimetidine] | unsuccessful | –
O=C(O)c1ccccc1O [salicylic acid] | – | 52% (0-87%)
Vitamin A | unsuccessful | –
